Test results taken from PubChem BioAssay (NCI).
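Following 48 hours of exposure in 96-well plates, responses at five concentrations were used to interpolate endpoints linearly. Abbreviation: GI50, concentration required for 50% inhibition of growth. TGI is the concentration that stops growth completely.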

Columns and labels:
Assay in all cases: NCI tumour cell line growth inhibition, 48 h
[1] = tested on: CCRF-CEM leukemia
[2] = tested on: HCC-2998 colon
[3] = tested on: HL-60(TB) leukemia
[4] = tested on: IGROV1 ovarian
[5] = tested on: K-562 leukemia
[6] = tested on: MALME-3M melanoma
[7] = tested on: NCI/ADR-RES ovarian
[8] = tested on: SF-539 CNS
[9] = tested on: SR leukemia
[10] = tested on: SK-MEL-28 melanoma

Row | SMILES | TGI [1] [µM] | TGI [2] [µM] | TGI [3] [µM] | TGI [4] [µM] | TGI [5] [µM] | TGI [6] [µM] | TGI [7] [µM] | TGI [8] [µM] | TGI [9] [µM] | TGI [10] [µM] | GI50 [1] [µM] | GI50 [2] [µM] | GI50 [3] [µM] | GI50 [4] [µM] | GI50 [5] [µM] | GI50 [6] [µM] | GI50 [7] [µM] | GI50 [8] [µM] | GI50 [10] [µM] | GI50 [9] [µM]
1 | Cc1ccc(S(=O)(=O)NNC(=O)c2cc(C)ccc2NC(=O)C23CC4CC(CC(C4)C2)C3)cc1 | > 100 | > 100 | > 100 | 30.6 | > 100 | 80.4 | > 100 | > 100 | > 100 | – | – | – | – | – | – | – | – | – | – | –
2 | COc1cccc(CC(C)NCC(O)c2ccc(O)c(O)c2)c1 (stereo not drawn) | > 100 | – | – | > 100 | > 100 | > 100 | > 100 | > 100 | 67.4 | > 100 | – | – | – | – | – | – | – | – | – | –
3 | O=C1CCC2(CCO1)OCCO2 | > 100 | > 100 | > 100 | > 100 | > 100 | > 100 | > 100 | > 100 | > 100 | > 100 | – | – | – | – | – | – | – | – | – | –
4 | N#CC(C#N)=C1C(C#N)=C(N)NC12OCCO2 | > 100 | > 100 | > 100 | > 100 | > 100 | > 100 | > 100 | – | > 100 | > 100 | – | – | – | – | – | – | – | – | – | –
5 | O=C1NC(=O)/C(=C/c2ccc(S(=O)(=O)N/N=C/c3ccc(Cl)cc3)cc2)N1 | > 100 | > 100 | > 100 | > 100 | > 100 | > 100 | > 100 | – | > 100 | > 100 | – | – | – | – | – | – | – | – | – | –
6 | CC1OC2=N[C@@H]1C(=O)N[C@@H](C(C)C)C1=N[C@H](C(=O)N[C@@H](C(C)C)C3=N[C@H](C(=O)N[C@@H](C(C)C)C4=N[C@H](C(=O)N[C@H]2C(C)C)C(C)O4)C(C)O3)C(C)O1 (stereo partly drawn) | > 10 | > 10 | > 10 | > 10 | > 10 | > 10 | > 10 | > 10 | > 10 | > 10 | – | – | – | – | – | – | – | – | – | –
7 | CCOC(=O)c1c(N2CCCC2)ncn(-c2ccccc2)c1=S | > 100 | > 100 | > 100 | > 100 | > 100 | > 100 | > 100 | > 100 | > 100 | > 100 | – | – | – | – | – | – | – | – | – | –
8 | Cc1cc(/C=C\c2ccc3ccccc3[n+]2C)c(O)c2ncccc12 | > 100 | 0.593 | – | 2.38 | > 100 | 5.16 | 13.6 | 0.909 | > 100 | 4.39 | 0.331 | 0.112 | 0.125 | 0.413 | 0.169 | 1.17 | 1.1 | 0.202 | 0.517 | 0.168
9 | O=C(NCc1cccc(C(F)(F)F)c1)c1cc2sccc2nc1C(F)(F)F | > 100 | – | – | > 100 | > 100 | > 100 | > 100 | > 100 | > 100 | > 100 | – | – | – | – | – | – | – | – | – | –
10 | Nc1ncnc2c1ncn2C1CCC(COS(N)(=O)=O)C1 (stereo not drawn) | > 100 | > 100 | > 100 | > 100 | > 100 | > 100 | > 100 | > 100 | > 100 | > 100 | – | – | – | – | – | – | – | – | – | –
11 | O=C(CCN1CCCC1)Nc1ccc2sc3ccccc3c(=O)c2n1 | 25.8 | 17 | 16.3 | 23.6 | 21.3 | 17.6 | 21.4 | 18.1 | 23.7 | 19.9 | – | – | – | – | – | – | – | – | – | –
12 | C/C(=N\NC(=S)N1CCCCC1)c1cccc(C)n1 | – | 21.8 | – | 12.8 | > 73.8 | 2.13 | 0.258 | 0.413 | > 100 | 36.9 | – | – | – | – | – | – | – | – | – | –
13 | Cc1ccncc1.F[B-](F)(F)F.[Pt+2].c1ccc(-c2cccc(-c3ccccn3)n2)nc1 | > 100 | 59.5 | > 45.7 | > 30.6 | > 100 | 20.1 | 11.7 | 15.1 | > 100 | > 100 | – | – | – | – | – | – | – | – | – | –
14 | COc1nc2c(c(=O)n1C)N[C@H]1[C@H](OC(C)=O)[C@@H](OC(C)=O)CO[C@H]1N2 | – | – | > 100 | > 100 | > 100 | > 100 | > 100 | > 100 | > 100 | > 100 | – | – | – | – | – | – | – | – | – | –
15 | CCOP(=O)(OCC)C(Nc1cccc(F)c1)c1ccccc1 (stereo not drawn) | > 100 | > 100 | 55.3 | > 100 | > 100 | > 100 | > 100 | > 100 | > 100 | > 100 | – | – | – | – | – | – | – | – | – | –
16 | COC(=O)[C@H]1[C@@H](C(C)C)O[C@@H](C(C)C)O[C@H]1C(F)(F)F | > 100 | > 100 | > 100 | > 100 | > 100 | > 100 | > 100 | > 100 | > 100 | > 100 | – | – | – | – | – | – | – | – | – | –
17 | Cc1cccc2c1[nH]c1[nH]c(=O)[nH]c(=O)c12 | > 100 | – | > 100 | > 100 | > 100 | > 100 | > 100 | > 100 | > 100 | – | – | – | – | – | – | – | – | – | – | –
18 | CCOC(=O)C1(C(=O)OCC)[C@H](c2ccccc2)C2=NO[C@@H]3CCC[C@H]1[C@H]23 | > 100 | 60 | > 100 | > 100 | > 100 | > 100 | > 100 | > 100 | > 100 | > 100 | – | – | – | – | – | – | – | – | – | –
19 | C[C@@H](O)C(=O)N1[C@@H]2CC3CC[C@]2(CS1(=O)=O)C3(C)C | 72.9 | > 100 | > 100 | > 100 | > 100 | – | > 100 | > 100 | 58.5 | > 100 | – | – | – | – | – | – | – | – | – | –
20 | N/N=C1/C2CN3CCN(C2)CC1(c1ccc([N+](=O)[O-])cc1)C3 | – | – | > 100 | > 100 | > 100 | > 100 | > 100 | > 100 | > 100 | > 100 | – | – | – | – | – | – | – | – | – | –
21 | C(=C\c1cccc(/C=C/c2ccccn2)n1)/c1ccccn1 | > 100 | > 100 | > 100 | > 100 | > 100 | 39.9 | > 100 | > 100 | > 100 | > 100 | – | – | – | – | – | – | – | – | – | –
